Measured values published in patent publication US12692253B2, “Antimicrobial compounds and methods” (Curza Global, LLC, priority 2019, dated 2026).

Columns and labels:
[1] = tested on: E. coli S30 extract (bacterial protein synthesis); test: E. coli S30 extract coupled transcription-translation luciferase assay (inhibition of bacterial protein synthesis); type: biochemical; conditions: class by IC50 or % inhibition @ 1 μM, read-out: S30 IC50 (μM/% inhib.)
Description: E. coli S30 extract: Inhibition of bacterial protein synthesis was determined using the E. coli S30 Extract System for Circular DNA (Promega catalog #L-2010) and Luciferase Assay Reagent (Promega catalog #E1500) with slight modifications to a published protocol. Fyfe, C., Sutcliffe, J. A. and Grossman, T. H. (2012) “Development and characterization of a Pseudomonas aeruginosa in vitro coupled transcription-translation assay system for evaluation of translation inhibitors” J. Microbiol. Methods 90(3), 256-261.
Compounds were serial diluted in 0.5 mL microcentrifuge tubes by mixing and transferring 50 μL from the highest concentration to 50 μL of water, mixing and transferring 50 μL of this 2-fold dilution to 50 μL of water. This mixing and transferring was repeated so that there are a total of 8 tubes with serial dilutions of compound at 10× the desired screening concentration that are ultimately diluted to 1× by the addition of S30 luciferase synthesis mixture. Serial dilutions of compounds were added (2 μL) to wells in a black round bottom 96-well plate. Water (2 μL) was used as a “no inhibitor” control in 4 wells/plate. No DNA control reaction mixture (20 μL; see below) was used as a control in 4 wells/plate for background luminescence. S30 luciferase synthesis mixture (18 μL; see below) was added to wells with compounds or water mixture and incubated at 37° C. for 1 hour. Reactions were stopped by transferring to 4° C. refrigerator for 5 minutes then 25 μL of luciferase activity mix was added. Luminescence was measured using a BioTek Synergy HTX plate reader. % Inhibition was determined relative to no inhibitor controls. • S30 luciferase synthesis mixture: • 445 μL S30 extract, circular • 712 μL S30 Premix without amino acids • 4.45 μL pBESTluc™ DNA (1 μg/μL) • 78 μL complete amino acid mixture • 267 μL water • No DNA control: • 20 μL S30 extract, circular • 32 μL S30 Premix without amino acids • 7 μL complete amino acid mixture • 21 μL water Rabbit Reticulocyte lysate

[2] = target: Rabbit Reticulocyte Lysate (eukaryotic protein synthesis); test: Rabbit reticulocyte lysate luciferase assay (inhibition of eukaryotic protein synthesis); type: biochemical; conditions: class by IC50 or % inhibition @ 1 μM, read-out: Rabbit reticulocyte IC50 (μM/% inhib.)
Description: Inhibition of eukaryotic protein synthesis was determined using the Rabbit Reticulocyte Lysate System, Nuclease-Treated from Promega (catalog #L-4960) with slight modifications to the manufacturer's protocol. Compounds were serial diluted in 0.5 mL microcentrifuge tubes by mixing and transferring 50 μL from the highest concentration to 50 μL of water, mixing and transferring 50 μL of this 2-fold dilution to 50 μL of water. This mixing and transferring was repeated so that there are a total of 8 tubes with serial dilutions of compound at 10× the desired screening concentration that are ultimately diluted to 1× by the addition of rabbit reticulocyte luciferase synthesis mixture. Serial dilutions of compounds were added (2.5 μL) to wells in a black round bottom 96-well plate. Water (2.5 μL) was used as a “no inhibitor” control in 4 wells/plate. No RNA control reaction mixture (2 μL; see below) was used as a control in 4 wells/plate for background luminescence. Rabbit reticulocyte luciferase synthesis mixture (22.5 μL; see below) was added to wells with compounds or water mixture and incubated at 30° C. for 90 minutes. Luciferase assay reagent (25 μL) was added with luminescence measured using a BioTek Synergy HTX plate reader. % Inhibition was determined relative to no inhibitor controls.
Rabbit Reticulocyte Luciferase Synthesis Mixture:
• 1,000 μL rabbit reticulocyte lysate • 5.7 μL Luciferase Control RNA (1 μg/μL) • 26 μL complete amino acid mixture • 395 μL water • No RNA Control • 70 μL rabbit reticulocyte lysate • 2 μL complete amino acid mixture • 28 μL water Minimum Inhibitory Concentration (MIC)

[3] = tested on: E. faecalis (Ef); test: Broth microdilution minimum inhibitory concentration (MIC), CLSI; type: cell-based; conditions: growth medium supplemented with sodium bicarbonate; for MIC: Enterococcus faecalis, read-out: Ef + bicarb MIC
Description: (§1) A certified BSL-2 laboratory was used for testing. Compounds were evaluated using the broth microdilution minimum inhibitory concentration (MIC) and minimum bactericidal concentration (MBC) assays defined by Clinical and Laboratory Standards Institute (CLSI) in the M26-A guideline against S. aureus (Sa), E. coli (Ec), K. pneumoniae (Kp), A. baumannn (Ab), E. faecalis (Ef) and P. aeruginosa (Pa).
(§2) MICs were determined using the Clinical Laboratory and Standards Institute (CLSI) Broth Microdilution Method with slight modification. Clinical and Laboratory Standards Institute (2012). “Methods for dilution antimicrobial susceptibility tests for bacteria that grow aerobically; approved standard, 9th ed. M07-A9 Clinical and Laboratory Standards Institute, Wayne, PA” Serial two-fold dilutions of compounds are prepared in sterile clear round-bottom 96-well plates.
(§3) To prepare microdilution trays, two-fold dilutions of antimicrobial agent are prepared in growth medium: Cation-Adjusted Mueller-Hinton Broth (CAMHB), or CAMHB supplemented with sodium bicarbonate (6.25 or 25 mM final concentration prepared from a 1.0M stock solution) or CAMHB supplemented with heat inactivated human serum (Fisher Cat. #BP2657100) 0-50% by adding 200 µL of the highest concentration to be tested (64 μg/mL, for example) in row A, mixing and transferring 100 μL from row A to 100 μL growth medium in row B, then repeating the mixing and transferring through row H of the 96-well plate, discarding the excess […] remaining. This slight modification to the CLSI protocol enables evaluation of MICs for 3 compounds per plate in triplicate, albeit with only 8 compound dilutions (CLSI protocol enables 2 compounds in triplicate with 10 dilutions). Bacterial suspensions are added to a final concentration of 5×10^4 CFU/well by adding 5 μL of a 1:10 dilution of a 0.5 McFarland suspension (1×10^8 CFU/mL) for each bacterium evaluated. Bacterial suspensions were prepared using the growth method described by CLSI. Well-isolated colonies (3-5 from an agar plate) were selected using a sterile loop and used to inoculate a tube containing 4 mL of CAMHB. The cultures are incubated at 35±2° C. until it achieves or exceeds the turbidity of the 0.5 McFarland standard, determined by measuring A600 (usually two to six hours). When growth exceeds a 0.5 McFarland standard, the turbidity is adjusted with broth to be equivalent to a 0.5 McFarland standard.

[4] = tested on: S. aureus (Sa); test: as above; type: cell-based; conditions: growth medium supplemented with sodium bicarbonate; for MIC: Staphylococcus aureus, read-out: Sa + bicarb MIC
Description: as §1, §2, §3

[5] = tested on: P. aeruginosa (Pa); test: as above; type: cell-based; conditions: growth medium supplemented with sodium bicarbonate; for MIC: Pseudomonas aeruginosa, read-out: Pa MIC + bicarb
Description: as §1, §2, §3

[6] = tested on: E. coli (Ec); test: as above; type: cell-based; conditions: growth medium supplemented with sodium bicarbonate; for MIC: Escherichia coli, read-out: E. coli + bicarb MIC
Description: as §1, §2, §3

[7] = tested on: A. baumannn (Ab); test: as above; type: cell-based; conditions: for MIC: Acinetobacter baumannii, read-out: Ab + bicarb MIC
Description: as §1, §2, §3

SMILES | IC50 [1] | IC50 [2] | MIC [3] | MIC [4] | MIC [5] | MIC [6] | MIC [7] | Ef + bicarb MIC [3] | Sa + bicarb MIC [4] | Pa MIC + bicarb [5] | E. coli + bicarb MIC [6] | Ab + bicarb MIC ([7]; A. baumannii, growth medium supplemented with sodium bicarbonate)
CC(C)(N)C(=O)N1CCN(C(=O)Nc2ccn(-c3ccc(CN4C[C@@H]5[C@@H](N)[C@@H]5C4)cc3)c(=O)n2)CC1 [Compound 3] | < 0.5 µM | ≥ 1 µM | < 8 µg/mL | < 8 µg/mL | 8 to 32 µg/mL | < 8 µg/mL | < 8 µg/mL | – | – | – | – | –
C[C@](N)(CO)C(=O)N1CCN(C(=O)Nc2ccn(-c3ccc(CN4C[C@@H]5[C@@H](N)[C@@H]5C4)cc3)c(=O)n2)CC1 [Compound 4] | < 0.5 µM | ≥ 1 µM | < 8 µg/mL | – | > 32 µg/mL | < 8 µg/mL | > 32 µg/mL | – | – | – | – | –
CC(C)(N)C(=O)N1CCN(C(=O)Nc2ccn(-c3ccc(CN4C[C@@H]5[C@@H](N)[C@@H]5C4)c(Cl)c3)c(=O)n2)CC1 [Compound 7] | < 0.5 µM | ≥ 1 µM | – | – | > 32 µg/mL | < 8 µg/mL | – | – | – | – | – | –
CC(C)(N)C(=O)N1CCN(C(=O)Nc2ccn(-c3ccc(CN4CCC5(N)CC5C4)cc3)c(=O)n2)CC1 (centres unmarked) [Compound 13] | 0.5 to 1 µM | ≥ 1 µM | < 8 µg/mL | < 8 µg/mL | > 32 µg/mL | < 8 µg/mL | > 32 µg/mL | – | – | – | – | –
CC(C)(N)C(=O)N1CCN(C(=O)Nc2ccn(-c3ccc(CN4C[C@@H]5[C@H](N)[C@@H]5C4)cc3)c(=O)n2)CC1 [Compound 14] | < 0.5 µM | ≥ 1 µM | < 8 µg/mL | < 8 µg/mL | > 32 µg/mL | < 8 µg/mL | > 32 µg/mL | – | – | – | – | –
C[C@H]1CN(C(=O)C(C)(C)N)CCN1C(=O)Nc1ccn(-c2ccc(CN3C[C@@H]4[C@@H](N)[C@@H]4C3)cc2)c(=O)n1 [Compound 17] | < 0.5 µM | ≥ 1 µM | – | – | > 32 µg/mL | < 8 µg/mL | – | – | – | – | – | –
CC(C)(N)C(=O)N1CCN(C(=O)Nc2ccn(-c3ccc(CN4CCC5(N)CC5C4)cc3)c(=O)n2)CC1 (centres unmarked) [Compound 20] | ≥ 1 µM | ≥ 1 µM | – | – | – | – | – | ++ (An MIC value (μg/mL) that is 8 μg/mL or greater and less than 32 μg/mL) | +++ (An MIC value (μg/mL) that is less than 8 μg/mL) | + (An MIC (μg/mL) value that is 32 μg/mL or greater) | +++ (An MIC value (μg/mL) that is less than 8 μg/mL) | + (An MIC (μg/mL) value that is 32 μg/mL or greater)
CC(C)(N)C(=O)N1CCN(C(=O)Nc2ccn(-c3ccc(CN4C[C@@H]5[C@@H](N)[C@@H]5C4)cc3)c(=O)n2)C(c2ccccc2)C1 (some centres unmarked) [Compound 27] | < 0.5 µM | ≥ 1 µM | – | 8 to 32 µg/mL | > 32 µg/mL | < 8 µg/mL | – | – | – | – | – | –
C[C@@H]1CN(C(=O)Nc2ccn(-c3ccc(CN4C[C@@H]5[C@@H](N)[C@@H]5C4)cc3)c(=O)n2)CCN1C(=O)C(C)(C)N [Compound 31] | < 0.5 µM | ≥ 1 µM | – | – | > 32 µg/mL | < 8 µg/mL | – | – | – | – | – | –
C[C@@H]1CN(C(=O)[C@@](C)(N)CO)CCN1C(=O)Nc1ccn(-c2ccc(CN3C[C@@H]4[C@@H](N)[C@@H]4C3)cc2)c(=O)n1 [Compound 35] | < 0.5 µM | ≥ 1 µM | 8 to 32 µg/mL | – | – | – | > 32 µg/mL | – | – | – | – | –
C[C@](N)(CO)C(=O)N1CCN(C(=O)Nc2ccn(-c3ccc(CN4CC5(CC(N)C5)C4)cc3)c(=O)n2)CC1 [Compound 36] | < 0.5 µM | ≥ 1 µM | > 32 µg/mL | – | > 32 µg/mL | < 8 µg/mL | > 32 µg/mL | – | – | – | – | –
C[C@](N)(CO)C(=O)N1CCN(C(=O)Nc2ccn(-c3ccc(CN4CCC5(CC4)CC(N)C5)cc3)c(=O)n2)CC1 [Compound 37] | < 0.5 µM | ≥ 1 µM | – | – | 8 to 32 µg/mL | < 8 µg/mL | – | – | – | – | – | –
CC(C)(N)C(=O)N1CCN(C(=O)Nc2ccn(-c3ccc(CN4CCC5(CCC5N)CC4)cc3)c(=O)n2)CC1 (centres unmarked) [Compound 38] | < 0.5 µM | ≥ 1 µM | 8 to 32 µg/mL | – | – | – | > 32 µg/mL | – | – | – | – | –
CC(C)(N)C(=O)N1CCN(C(=O)Nc2ccn(-c3ccc(CN4CC5(CNC5)C4)cc3)c(=O)n2)CC1 [Compound 46] | < 0.5 µM | ≥ 1 µM | > 32 µg/mL | 8 to 32 µg/mL | > 32 µg/mL | < 8 µg/mL | – | – | – | – | – | –
CC(C)(N)C(=O)N1CCN(C(=O)Nc2ccn(-c3ccc(CN4CC5(CCNCC5)C4)cc3)c(=O)n2)CC1 [Compound 81] | < 0.5 µM | ≥ 1 µM | – | 8 to 32 µg/mL | > 32 µg/mL | < 8 µg/mL | > 32 µg/mL | – | – | – | – | –
C[C@](N)(CO)C(=O)N1CCN(C(=O)Nc2ccn(-c3cccc(CCN4C[C@@H]5[C@@H](N)[C@@H]5C4)c3)c(=O)n2)CC1 [Compound 89] | ≥ 1 µM | – | – | > 32 µg/mL | > 32 µg/mL | 8 to 32 µg/mL | – | – | – | – | – | –
CC(C)(N)C(=O)N1CCN(C(=O)Nc2ccn(-c3ccc(CCN4CCC5(CC4)CC(N)C5)cc3)c(=O)n2)CC1 [Compound 91] | < 0.5 µM | ≥ 1 µM | – | – | < 8 µg/mL | < 8 µg/mL | – | – | – | – | – | –
CC(C)(N)C(=O)N1CCN(C(=O)Nc2ccn(-c3ccc(CCN4CCC5CC5(N)C4)cc3)c(=O)n2)CC1 (centres unmarked) [Compound 93] | < 0.5 µM | ≥ 1 µM | < 8 µg/mL | – | < 8 µg/mL | < 8 µg/mL | > 32 µg/mL | – | – | – | – | –
